molecular target: T1, CHK1 (Homo sapiens, UniProt O14757); test: CHK1 Enzyme Assay (phosphorylation of Chktide peptide, 33P-ATP filter assay); format: biochemical; conditions: 12.5 nM His-CHK1, 0.01 mM ATP, 40 minutes at 30° C.; read-out: CHK1 Enzyme Activity (IC50 range)
T1 construct: His; purchased Invitrogen
T1 sequence (O14757 1-476): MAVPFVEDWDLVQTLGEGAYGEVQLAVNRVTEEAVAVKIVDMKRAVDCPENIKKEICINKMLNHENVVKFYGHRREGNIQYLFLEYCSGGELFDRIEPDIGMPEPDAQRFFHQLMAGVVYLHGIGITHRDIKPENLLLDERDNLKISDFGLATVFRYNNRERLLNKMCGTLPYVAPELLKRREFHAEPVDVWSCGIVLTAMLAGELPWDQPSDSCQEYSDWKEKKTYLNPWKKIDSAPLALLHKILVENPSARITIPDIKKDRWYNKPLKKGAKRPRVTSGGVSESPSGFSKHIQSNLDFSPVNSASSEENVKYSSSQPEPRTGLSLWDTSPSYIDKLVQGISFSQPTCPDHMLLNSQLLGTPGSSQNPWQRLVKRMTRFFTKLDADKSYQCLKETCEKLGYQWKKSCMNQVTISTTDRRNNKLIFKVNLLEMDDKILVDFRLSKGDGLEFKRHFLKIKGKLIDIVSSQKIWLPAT
Procedure: Assays for the CHK1 kinase activity were carried out by monitoring the phosphorylation of a synthetic peptide Chktide with the amino acid sequence, […]. The assay mixture containing the inhibitor and CHK1 enzyme was mixed together in a microtiter plate in a final volume of 50 μl and incubated for 40 minutes at 30° C.
The assay mixture contained 0.01 mM unlabeled ATP, 0.5 μCi ^33P-γ-ATP, 14.8 μM Chktide, 0.1 mg/mL BSA, 50 mM Hepes-NaOH pH 7.5 and 12.5 nM His-CHK1 (Invitrogen) enzyme. The reaction was stopped by adding 50 μL of 50 mM phosphoric acid. 90 μL of the mixture was transferred to a pre-wetted 96-well multi-screen MAPHNOB filtration plate (Millipore) and filtered on a vacuum manifold. The filter plate was washed with 3 successive additions of 200 μl 50 mM phosphoric acid and then with 100 μL methanol. The filtration plate was dried for 10 min at 65° C., scintillant added and phosphorylated peptide quantified in a scintillation counter (Trilux, PerkinElmer).

| IC50 | SMILES |
| --- | --- |
| < 100 nM | CN1CCN(Cc2ccc3[nH]c(-c4cc(NC(=O)c5cnn(Cc6ccccc6)c5)c[nH]c4=O)cc3c2)CC1 [Example 58, 1-Benzyl-1H-pyrazole-4-carboxylic acid {5-[5-(4-methyl-piperazin-1-ylmethyl)-1H-indol-2-yl]-6-oxo-1,6-dihydro-pyridin-31}-amide] |
| < 100 nM | Cc1ccc(Cn2cc(C(=O)Nc3c[nH]c(=O)c(-c4cc5cc(CN6CCN(C)CC6)ccc5[nH]4)c3)cn2)cc1 [Example 59, 1-(4-Methyl-benzyl)-1H-pyrazole-4-carboxylic acid {5-[5-(4-methyl-piperazin-1-ylmethyl)-1H-indol-2-yl]-6-oxo-1,6-dihydro-pyridin-3-yl}-amide] |
| < 100 nM | O=C(Nc1c[nH]c(=O)c(-c2cc3cc(CN4CCC(O)CC4)ccc3[nH]2)c1)c1cnn(Cc2ccccc2)c1 [Example 60, 1-Benzyl-1H-pyrazole-4-carboxylic acid {5-[5-(4-hydroxy-piperidin-1-ylmethyl)-1H-indol-2-yl]-6-oxo-1,6-dihydro-pyridin-3-yl}-amide] |
| < 100 nM | O=C(Nc1c[nH]c(=O)c(-c2cc3cc(CNCCO)ccc3[nH]2)c1)c1cnn(Cc2ccccc2)c1 [Example 61] |
| < 100 nM | Cc1ccc(Cn2cc(C(=O)Nc3c[nH]c(=O)c(-c4cc5cc(CN6CCN(CCO)CC6)ccc5[nH]4)c3)cn2)cc1 [Example 62, 1-(4-Methyl-benzyl)-1H-pyrazole-4-carboxylic acid (5-{5-[4-(2-hydroxy-ethyl)-piperazin-1-ylmethyl]-1H-indol-2-yl}-6-oxo-1,6-dihydro-pyridin-3-yl)-amide] |
| < 100 nM | O=C(Nc1c[nH]c(=O)c(-c2cc3cc(CN4CCCC(F)C4)ccc3[nH]2)c1)c1cnn(Cc2ccc(Cl)cc2)c1 (centres unmarked) [Example 63, 1-(4-Chloro-benzyl)-1H-pyrazole-4-carboxylic acid {5-[5-(3-fluoro-piperidin-1-ylmethyl)-1H-indol-2-yl]-6-oxo-1,6-dihydro-pyridin-3-yl}-amide] |
| < 100 nM | O=C(Nc1c[nH]c(=O)c(-c2cc3cc(CN4CCC(F)(F)CC4)ccc3[nH]2)c1)c1cnn(Cc2ccccc2)c1 [Example 64, 1-Benzyl-1H-pyrazole-4-carboxylic acid {5-[5-(4,4-difluoro-piperidin-1-ylmethyl)-1H-indol-2-yl]-6-oxo-1,6-dihydro-pyridin-3-yl}-amide] |
| < 100 nM | O=C(Nc1c[nH]c(=O)c(-c2cc3cc(CN4CCN(CCO)CC4)ccc3[nH]2)c1)c1cnn(Cc2ccccc2)c1 [Example 65, 1-Benzyl-1H-pyrazole-4-carboxylic acid (5-{5-[4-(2-hydroxy-ethyl)-piperazin-1-ylmethyl]-1H-indol-2-yl}-6-oxo-1,6-dihydro-pyridin-3-yl)-amide] |
| < 100 nM | O=C(Nc1c[nH]c(=O)c(-c2cc3cc(CN4CCN(CCO)CC4)ccc3[nH]2)c1)c1cnn(Cc2ccc(Cl)cc2)c1 [Example 66, 1-(4-Chloro-benzyl)-1H-pyrazole-4-carboxylic acid (5-{5-[4-(2-hydroxy-ethyl)-piperazin-1-ylmethyl]-1H-indol-2-yl}-6-oxo-1,6-dihydro-pyridin-3-yl)-amide] |
| < 100 nM | O=C(Nc1c[nH]c(=O)c(-c2cc3cc(CN4CCOCC4)ccc3[nH]2)c1)c1cnn(Cc2ccc(Cl)cc2)c1 [Example 67, 1-(4-Chloro-benzyl)-1H-pyrazole-4-carboxylic acid [5-(5-morpholin-4-ylmethyl-1H-indol-2-yl)-6-oxo-1,6-dihydro-pyridin-3-yl]-amide] |
| < 100 nM | CS(=O)(=O)CCNCc1ccc2[nH]c(-c3cc(NC(=O)c4cnn(Cc5ccccc5)c4)c[nH]c3=O)cc2c1 [Example 68] |
| < 100 nM | CC1CN(Cc2ccc3[nH]c(-c4cc(NC(=O)c5cnn(Cc6ccccc6)c5)c[nH]c4=O)cc3c2)CC(C)O1 (centres unmarked) [Example 69, 1-Benzyl-1H-pyrazole-4-carboxylic acid {5-[5-(2,6-dimethyl-morpholin-4-ylmethyl)-1H-indol-2-yl]-6-oxo-1,6-dihydro-pyridin-3-yl}-amide] |
| < 100 nM | CC1CN(Cc2ccc3[nH]c(-c4cc(NC(=O)c5cnn(Cc6ccccc6)c5)c[nH]c4=O)cc3c2)CCN1C (centres unmarked) [Example 70, 1-Benzyl-1H-pyrazole-4-carboxylic acid {5-[5-(3,4-dimethyl-piperazin-1-ylmethyl)-1H-indol-2-yl]-6-oxo-1,6-dihydro-pyridin-3-yl}-amide] |
| < 100 nM | CC1CN(Cc2ccc3[nH]c(-c4cc(NC(=O)c5cnn(Cc6ccc(C(C)C)cc6)c5)c[nH]c4=O)cc3c2)CC(C)O1 (centres unmarked) [Example 72, 1-(4-isopropylbenzyl)-1H-pyrazole-4-carboxylic acid {5-[5-(2,6-dimethylmorpholin-4-ylmethyl)-1H-indol-2-yl)-6-oxo-1,6-dihydropyridin-3-yl}-amide] |
| < 100 nM | CC(C)c1ccc(Cn2cc(C(=O)Nc3c[nH]c(=O)c(-c4cc5cc(CN6CCC(F)CC6)ccc5[nH]4)c3)cn2)cc1 [Example 73, 1-(4-isopropylbenzyl)-1H-pyrazole-4-carboxylic acid {5-[5-(4-fluoropiperidin-1-ylmethyl)-1H-indol-2-yl)-6-oxo-1,6-dihydropyridin-3-yl}-amide] |
| < 100 nM | Cc1ccc(Cn2cc(C(=O)Nc3c[nH]c(=O)c(-c4cc5cc(CN6C[C@@H](C)O[C@@H](C)C6)ccc5[nH]4)c3)cn2)cc1 [Example 74, 1-(4-Methyl-benzyl)-1H-pyrazole-4-carboxylic acid {5-[5-(cis-2,6-dimethyl-morpholin-4-ylmethyl)-1H-indol-2-yl]-6-oxo-1,6-dihydro-pyridin-3-yl}-amide] |
| < 100 nM | CCN(CC)Cc1ccc2[nH]c(-c3cc(NC(=O)c4cnn(Cc5ccc(C)cc5)c4)c[nH]c3=O)cc2c1 [Example 75, 1-(4-Methyl-benzyl)-1H-pyrazole-4-carboxylic acid [5-(5-diethylaminomethyl-1H-indol-2-yl)-6-oxo-1,6-dihydro-pyridin-3-yl]-amide] |
| < 100 nM | C[C@@H]1CN(Cc2ccc3[nH]c(-c4cc(NC(=O)c5cnn(Cc6ccc(F)cc6)c5)c[nH]c4=O)cc3c2)C[C@H](C)O1 [Example 76, 1-(4-Fluoro-benzyl)-1H-pyrazole-4-carboxylic acid {5-[5-(cis-2,6-dimethyl-morpholin-4-ylmethyl)-1H-indol-2-yl]-6-oxo-1,6-dihydro-pyridin-3-yl}-amide] |
| < 100 nM | CN(Cc1ccc2[nH]c(-c3cc(NC(=O)c4cnn(Cc5ccccc5)c4)c[nH]c3=O)cc2c1)C1CCCCC1 [Example 77] |
| < 100 nM | COCCN(C)Cc1ccc2[nH]c(-c3cc(NC(=O)c4cnn(Cc5ccccc5)c4)c[nH]c3=O)cc2c1 [Example 79, 1-Benzyl-1H-pyrazole-4-carboxylic acid [5-(5-{1(2-methoxy-ethyl)-methyl-aminol-methyl}-1H-indol-2-yl)-6-oxo-1,6-dihydro-pyridin-3-yl]-amide] |
| < 100 nM | O=C(Nc1c[nH]c(=O)c(-c2cc3cc(CN4CCCCC4)ccc3[nH]2)c1)c1cnn(Cc2ccc(F)cc2)c1 [Example 80, 1-(4-Fluoro-benzyl)-1H-pyrazole-4-carboxylic acid [6-oxo-5-(5-piperidin-1-ylmethyl-1H-indol-2-yl)-1,6-dihydro-pyridin-3-yl]-amide] |
| < 100 nM | O=C(Nc1c[nH]c(=O)c(-c2cc3cc(CN4CCC(F)CC4)ccc3[nH]2)c1)c1cnn(Cc2ccc(F)cc2)c1 [Example 81, 1-(4-Fluoro-benzyl)-1H-pyrazole-4-carboxylic acid {5-[5-(4-fluoro-piperidin-1-ylmethyl)-1H-indol-2-yl]-6-oxo-1,6-dihydro-pyridin-3-yl}-amide] |
| < 100 nM | CC1CCN(Cc2ccc3[nH]c(-c4cc(NC(=O)c5cnn(Cc6ccc(F)cc6)c5)c[nH]c4=O)cc3c2)CC1 [Example 82, 1-(4-Fluoro-benzyl)-1H-pyrazole-4-carboxylic acid {5-[5-(4-methyl-piperidin-1-ylmethyl)-1H-indol-2-yl]-6-oxo-1,6-dihydro-pyridin-3-yl}-amide] |
| < 100 nM | CCNCc1ccc2[nH]c(-c3cc(NC(=O)c4cnn(Cc5ccc(F)cc5)c4)c[nH]c3=O)cc2c1 [Example 83, 1-(4-Fluoro-benzyl)-1H-pyrazole-4-carboxylic acid [5-(5-ethylaminomethyl-1H-indol-2-yl)-6-oxo-1,6-dihydro-pyridin-3-yl]-amide] |
| < 100 nM | CN(Cc1ccc2[nH]c(-c3cc(NC(=O)c4cnn(Cc5ccc(F)cc5)c4)c[nH]c3=O)cc2c1)C1CCCCC1 [Example 84] |
| < 100 nM | CC(c1ccccc1)n1cc(C(=O)Nc2c[nH]c(=O)c(-c3cc4cc(CN5CCCCC5)ccc4[nH]3)c2)cn1 (centres unmarked) [Example 85, 1-(1-Phenyl-ethyl)-1H-pyrazole-4-carboxylic acid [6-oxo-5-(5-piperidin-1-ylmethyl-1H-indol-2-yl)-1,6-dihydro-pyridin-3-yl]-amide] |

Source: US9604975B2, “Indolyl-pyridone derivatives having checkpoint kinase 1 inhibitory activity” (Vernalis (R&D) Ltd., priority 2009, dated 2017)
